Data on 90 compounds can be found in ChEMBL document CHEMBL3137356, “MMV Box Cryptosporidium parvum screening set”.

The assay relates to Cryptosporidium parvum. Description: MMV: Cryptosporidium parvum oocysts (Iowa Strain) were prepared for use by treatment with 10 mM HCl (37 degrees C, 10 min) followed by 2 mM sodium taurocholate in phosphate-buffered saline (PBS) with Ca2+ and Mg2+ (16 degrees C, 10 min) in order to stimulate excystation. The high-throughput screen was carried out by inoculating >90% confluent human ileocecal adenocarcinoma (HCT-8) cells (ATCC) with ~5.5 x 10^3 primed oocysts per well. Experimental compounds or DMSO (vehicle) were added three hours after infection, and cells were incubated for 48 hours. The assay is classed as functional.

Turning to `O=C(NC1CCN(Cc2ccccc2)CC1)c1cc(-c2cccnc2)nc2ccc(Cl)cc12`, the Inhibition (as a rule, the change of the read-out against control, counted positive when it falls) was -40.68%. For the compound `CCOC(=O)c1c[nH]c2c(CC)cccc2c1=O`, the Inhibition is 0.8782%.

For `COCCN(C(=O)Cc1cccs1)C(C(=O)NCc1ccc(OC)cc1)c1ccc(C(C)C)cc1` (stereo not given), the Inhibition came to 3.107%. For `CCOc1ccc2nc(C)cc(Nc3ccc(N(C)C)cc3)c2c1.Cl`, the Inhibition was -13.24%. Under `OC1=C2C(=Nc3ccccc3SC2c2ccc(Br)cc2)c2ccccc21` (stereo not given) stands 2.929%. On to `COc1ccccc1CNC(=O)C1c2ccccc2C(=O)N(CC(C)C)C1c1cccs1` (stereo not given), for which the Inhibition came out at 58.94%.

`Oc1ccc(-c2nc(-c3ccc4oc5ccc(-c6[nH]c(-c7ccc(O)cc7)nc6-c6ccccc6)cc5c4c3)c(-c3ccccc3)[nH]2)cc1`: the Inhibition is listed as -17.83%.

As to `CCN(CC)CCNc1ncnc2c1[nH]c1ccc(Cl)cc12`, the Inhibition is on record as -27.98%. To `COc1ccc2c(=O)cc(C(Cl)(Cl)Cl)oc2c1` belongs 71.77%.

As for `COc1ccc(CN2CCN(Cc3ccccc3)CC2)c(O)c1`, the Inhibition is -9.592%.

Regarding `COc1ccccc1C(=O)ON=C(N)Cc1cccc2ccccc12`, the Inhibition is -19.53%.

In the case of `O=C(Nc1ccccc1O)c1ccc(Oc2cccc(C(=O)Nc3ccccc3O)c2)cc1`, the Inhibition is listed as -14.93%.

As to `O=C(Nc1ccc(Cl)cc1C(=O)Nc1ccncc1)c1ccc(Cl)cc1Cl`, the Inhibition was -3.564%.

For `CN(N=O)C1=C(NC2CCCCC2)C(=O)c2ccccc2C1=O`, the Inhibition is reported as -6.459%.

Consider `OC(CNC1CCCCC1)Cn1c2ccccc2c2ccccc21` (stereo not given), for which the Inhibition is given as -24.91%. Under `Cc1sc(NC(=O)c2ccco2)c(C(c2cccnc2)N2CCC(Cc3ccccc3)CC2)c1C` (stereo not given) stands -7.724%. In the case of `CC(O)(c1ccc(Cl)cc1)C(CN1CCCCC1)c1ccccc1.Cl` (stereo not given), the Inhibition was 15.77%. On to `COc1ccc(C=C2SC(=N)N(c3ccccc3OC)C2=O)cc1`, for which the Inhibition stood at 10.76%.

Consider `O=C(NCC1Cc2cccc(-c3ccncc3)c2O1)c1csc2c1CCCC2` (stereo not given), for which the Inhibition was 13.55%.

With `O=c1c2c([nH]c3ccccc13)CCCC2`, the Inhibition is given as 14.89%. Under `Cl.OC(CNCc1ccccc1)Cn1c2ccccc2c2ccccc21` (stereo not given) stands -37.25%; under `COc1cccc(C(=O)NC(c2ccc(C)cc2)c2cc(Cl)c3cccnc3c2O)c1` (stereo not given), 59.18%. Take `CC(=O)c1sc(NC(=O)Nc2ccc(C)cc2C)nc1C`: the Inhibition is -18.27%. Under `COc1ccc(-c2cn3c(C(=O)Nc4ccccc4Cl)c(-c4ccccc4)c4c3n2CCCC4)cc1` stands 34.31%; under `CCOc1cc(Cl)c(C(C)NC(=O)c2ccccc2)cc1OCC` (stereo not given), 5.189%. To `CCCCc1c(CCC)c(=N)c2ccccc2n1C.I` belongs 11.94%. To `Cc1cc(NC(=O)c2cccc(C(F)(F)F)c2)n(-c2nc(-c3ccc4c(c3)OCO4)cs2)n1` belongs -22.88%; to `COc1ccc(CNC(=O)c2cc3c(=O)n4ccccc4nc3n(CCc3ccccc3)c2=N)cc1`, 20.87%. As to `COc1ccc2nc(C)cc(Nc3ccccc3O)c2c1`, the Inhibition is on record as -4.901%. Consider `Clc1ccc2[nH]c3c(NCCCN4CCOCC4)ncnc3c2c1`, for which the Inhibition amounted to 37.37%.

Consider `CCOc1c(Br)cc(C2C(C(=O)OC)=CN(C)C=C2C(=O)OC)cc1OC`, for which the Inhibition is reported as -4.752%. With `Cc1cc(C)c2nc(N3CCC(C(=O)NCCCN4CCC(N5CCCCC5)CC4)CC3)sc2c1`, the Inhibition is given as -56.98%. Under `Cc1cc(NC(=O)c2ccc(-c3ccccc3)cc2)no1` stands 13.55%; under `O=C(Nc1ccc(CN2CCOCC2)cc1)c1ccc(-c2ccc(Br)cc2)o1`, 0.1242%; under `CCCCC(O)(c1ccc(Cl)cc1)C(CN1CCOCC1)c1ccc(Cl)cc1.Cl` (stereo not given), 17.88%.

Consider `COc1ccc(CNC2CCN(c3ccc(NC(=O)c4cccc(Cl)c4)cc3)CC2)cc1OC`, for which the Inhibition is -38.21%. Turning to `Cc1[nH]c(-c2ccc(F)cc2)cc1C(=O)NC1CCN(Cc2ccccc2)CC1`, the Inhibition is on record as -23.5%. `CCc1ccc(CNCC(O)c2ccccc2)cc1.Cl` (stereo not given): the Inhibition is listed as -7.138%. To `COc1ccc(C(=O)Nc2ccc(Cl)cc2C(=O)Nc2ccncc2)cc1` belongs -23.38%; to `CCCCCCc1cc(O)c2c3c(c(=O)oc2c1)CCC(C)C3` (stereo not given), -17.49%; to `CCOC(=O)c1cnc2ccc(OC)cc2c1Nc1ccc(N2CCN(C)CC2)cc1`, -40.43%. To `COc1ccc(Br)cc1C1Nc2ccc3ccccc3c2C2=C1C(=O)CC(c1ccccc1)C2` (stereo not given) belongs -67.54%. `Cc1ccc(-c2cc3c(nn2)-c2ccccc2C3=O)cc1`: the Inhibition was -55.29%. To `Cc1nc2ccccc2c(O)c1CC=C(Cl)Cl` belongs -7.486%. To `CCN(Cc1ccccc1)C1CCN(Cc2cc(Br)ccc2O)CC1.O=C(O)C(=O)O` belongs -6.655%; to `Cc1cc(Nc2ccc3ccccc3c2)n2ncnc2n1`, -10.13%; to `c1ccc(/C2=N/c3ccccc3/N=C(/c3ccccc3)c3ccccc32)cc1`, 8.997%. To `CCCN(CCC)CCCNC(=O)c1cc2c(-c3ccc(OC)c(OC)c3)nn(C)c2s1` belongs 32.69%.

`Cc1ccnc(NC(c2cccc(OCc3ccccc3)c2)c2ccc3cccnc3c2O)c1` (stereo not given): the Inhibition is given as 80.24%. Under `COc1ccccc1CNC(=O)CCn1c(=O)[nH]c2ccsc2c1=O` stands -10.39%; under `CCOc1ccccc1NC(=O)CN1CCN(C(=O)c2ccco2)CC1`, -43.69%. Regarding `Cc1ccc(CSCc2ccc(C(=O)NC3CC3)o2)cc1`, the Inhibition is recorded as -11.49%. Regarding `CCOC(=O)c1cnc2c(C)cc(C)cc2c1Nc1ccc(OC)c(OC)c1`, the Inhibition is listed as -30.02%. Consider `CNCCCNc1ccnc2cc(Cl)ccc12`, for which the Inhibition is listed as -4.729%. To `CC1(c2ccccc2)Nc2ccccc2-c2nc3ccccc3n21` (stereo not given) belongs 30.85%; to `COc1ccc(C2N(C)c3ccccc3N2C)cc1`, -12.31%; to `CN(C)c1ccc(N2C(N)=NC(N)=NC2(C)C)cc1`, -33.57%.

Turning to `CN(C)c1ccc(C=Cc2nc(=O)c3ccccc3o2)cc1`, the Inhibition is given as -61.37%. As for `Nc1ccc(-c2nc3cc(Cc4ccc5[nH]c(-c6ccc(N)cc6)nc5c4)ccc3[nH]2)cc1`, the Inhibition is recorded as -51.86%.

Regarding `CCOc1cccc2sc(N(Cc3cccnc3)C(=O)C3CCCCC3)nc12`, the Inhibition is recorded as -38.34%. As to `C=CC12CCN(CC1)C(C(O)c1ccnc3ccc(OC)cc13)C2.Cl` (stereo not given), the Inhibition amounted to 1.246%. Regarding `CCCCN(CCCC)S(=O)(=O)c1ccc(NC(=O)c2ccco2)cc1`, the Inhibition was -29.51%.

For `O=C(NCCCN1CCC(N2CCCCC2)CC1)C1=Cc2cc(Br)ccc2OC1`, the Inhibition was -11.72%. Under `CC(C)(C)c1ccc(C2CC3=Nc4ccccc4N(C(=O)c4ccccc4Cl)C(c4ccc(F)cc4)C3=C(O)C2)cc1` (stereo not given) stands 20.41%; under `O=C1CC(O)(C(F)(F)C(F)(F)F)Oc2ccccc21` (stereo not given), 26.51%. To `O=C(CCc1ccco1)NC1CCN(CC2(c3ccc(Cl)cc3)CCC2)CC1` belongs -27.18%.

`Cc1ccc(-c2cc3nc4c(c(O)n3n2)CCCC4)cc1`: the Inhibition was found to be 2.31%. Consider `c1ccc2c(NCCc3c[nH]c4ccccc34)c3ccccc3nc2c1`, for which the Inhibition stood at 19.05%. To `O=C(Nc1ccccc1O)c1ccc(-c2ccc(Cl)cc2Cl)o1` belongs -8.773%. Under `CCCCOC(=O)c1ccc(Nc2cc(C)nc3ccc(OC)cc23)cc1` stands 12.32%. With `CN1CCN(c2ncnc3c2[nH]c2ccc(Cl)cc23)CC1`, the Inhibition was -51.61%.

With `O=C(Nc1cccc(C(F)(F)F)c1)c1cc(Cl)ccc1O`, the Inhibition turned out to be 41.48%. Under `COc1ccc(C2c3ccc4ccccc4c3Oc3ncn(CCCN(C)C)c(=N)c32)cc1` (stereo not given) stands 9.024%.

On to `CCCCc1c(C)nc2c(OC)cccc2c1O`, for which the Inhibition is -24.29%. `CCOc1ccc(-c2nc(NC(=O)c3cccc(S(C)(=O)=O)c3)sc2C)cc1`: the Inhibition came out at 26.25%. As for `COc1ccc(C(=O)NC(c2ccc(Cl)cc2Cl)c2cc(Cl)c3cccnc3c2O)cc1` (stereo not given), the Inhibition amounted to 66.57%. With `Cc1ccc(Nc2nc(NCCO)c3ccccc3n2)cc1C`, the Inhibition was found to be 34.33%. `CCOc1cc2c(cc1OCC)C(c1cc(OC)c(O)cc1Cl)NCC2` (stereo not given): the Inhibition is listed as -16.38%. With `Cc1ccc(Nc2nc(-c3ccccn3)cs2)cc1`, the Inhibition was -19.75%. Under `COc1ccc(C(=O)NC(c2ccccc2Cl)c2cc(Cl)c3cccnc3c2O)cc1` (stereo not given) stands 32.62%; under `O=C(Nc1ccc(-c2nc3cc(NC(=O)c4ccc(Cl)cc4)ccc3[nH]2)cc1)c1ccc(Cl)cc1`, -6.932%. To `O=c1nc(C=Cc2ccc(Cl)cc2)oc2ccccc12` belongs 84.37%. Under `CCOc1cc(CNC(C)C(O)c2ccccc2)cc(Cl)c1OCC` (stereo not given) stands 29.95%; under `Cc1ccc(S(=O)(=O)c2c(COC(=O)c3cccc(C)c3)c(-c3ccccc3)nn2C)cc1`, -24.68%. For `CCC(=O)Nc1nnc(Cc2ccc(OC)c(OC)c2)s1`, the Inhibition is listed as 5.406%. Under `CCc1ccc(Nc2cc(C)c3ccc(O)cc3n2)cc1.Cl` stands -30.31%. Under `CC1=C(CC(=O)c2cccc([N+](=O)[O-])c2)C(=O)c2ccccc2C1=O` stands -15.31%; under `Brc1ccc(Nc2nc3ccccc3nc2Nc2ccc(Br)cc2)cc1`, -31.05%; under `CN(C)CCCNc1c2ccccc2nc2ccccc12`, 55.64%.

As for `CCOc1cc(Cl)c(C(C)NC(=O)c2cccc(OC)c2)cc1OCC` (stereo not given), the Inhibition is given as -11.62%.
